# The NIST ThermoML archive (doi:10.1016/j.jct.2011.06.016)
# Numbers after ± are expanded uncertainties.
# Assay: refractive index (Na D-line) (dimensionless)
# Conditions: 101.33 kPa, Liquid, Standard Abbe refractometry
refractive index (298.15 K),refractive index (313.15 K),SMILES
1.437 ± 0.001,,CCCCCCCCCCCCCCCC(=O)OCC [ethyl hexadecanoate]
,1.436 ± 0.001,CCCCCCCCCCCCCCCCCC(=O)OCC [ethyl octadecanoate]
1.471 ± 0.001,,OCC(O)CO [glycerol]
1.333 ± 0.001,,O [water]

SMILES,refractive index (298.15 K),refractive index (313.15 K)
CCO [ethanol],1.3625 ± 0.0007,
